This note sets out measurements from patent US20110160147A1, “NOVEL DUAL TARGETING A[…]” (priority 2008, published 2011).

Where two headings read alike, the source gives them in different places.

For data set [1], the target named is αvβ3 receptor (Homo sapiens, UniProt P05106+P06756). The experiment in a line: Solid-phase binding assay, inhibition of [125I]Echistatin binding to αvβ3 receptor. As for the experimental part: (§1) The receptor binding assays were performed as described (Orlando R. A., et al., J. Biol. Chem. 1991, 266, 19543). αvβ3 and αvβ5 were diluted to 500 ng/ml and 1 μg/ml, respectively, in coating buffer (20 mM Tris, pH 7.4, 150 mM NaCl, 2 mM CaCl2, 1 mM MgCl2, 1 mM MnCl2) and an aliquot of 100 μL was added to a 96-well microtiter plate and incubated overnight at 4° C. The plate was washed once with blocking/binding buffer (50 mM Tris, pH 7.4, 100 mM NaCl, 2 mM CaCl2, 1 mM MgCl2, 1 mM MnCl2, 1% bovine serum albumin), and then was incubated for additional 2 h at RT The plate was rinsed twice with the same buffer and incubated for 3 h at RT with radiolabeled ligand [^125I]Echistatin (Amersham Pharmacia Biotech) 0.05 nM (0.1 nM for αv β5) in the presence of competing inhibitors. After the incubation, the wells were washed and radioactivity was determined with a gamma-counter (Packard). Non-specific binding of ligand was determined with molar excess (200 nM) of cold echistatin.
Chain of αvβ3 receptor (P06756 31-889 limits assumed): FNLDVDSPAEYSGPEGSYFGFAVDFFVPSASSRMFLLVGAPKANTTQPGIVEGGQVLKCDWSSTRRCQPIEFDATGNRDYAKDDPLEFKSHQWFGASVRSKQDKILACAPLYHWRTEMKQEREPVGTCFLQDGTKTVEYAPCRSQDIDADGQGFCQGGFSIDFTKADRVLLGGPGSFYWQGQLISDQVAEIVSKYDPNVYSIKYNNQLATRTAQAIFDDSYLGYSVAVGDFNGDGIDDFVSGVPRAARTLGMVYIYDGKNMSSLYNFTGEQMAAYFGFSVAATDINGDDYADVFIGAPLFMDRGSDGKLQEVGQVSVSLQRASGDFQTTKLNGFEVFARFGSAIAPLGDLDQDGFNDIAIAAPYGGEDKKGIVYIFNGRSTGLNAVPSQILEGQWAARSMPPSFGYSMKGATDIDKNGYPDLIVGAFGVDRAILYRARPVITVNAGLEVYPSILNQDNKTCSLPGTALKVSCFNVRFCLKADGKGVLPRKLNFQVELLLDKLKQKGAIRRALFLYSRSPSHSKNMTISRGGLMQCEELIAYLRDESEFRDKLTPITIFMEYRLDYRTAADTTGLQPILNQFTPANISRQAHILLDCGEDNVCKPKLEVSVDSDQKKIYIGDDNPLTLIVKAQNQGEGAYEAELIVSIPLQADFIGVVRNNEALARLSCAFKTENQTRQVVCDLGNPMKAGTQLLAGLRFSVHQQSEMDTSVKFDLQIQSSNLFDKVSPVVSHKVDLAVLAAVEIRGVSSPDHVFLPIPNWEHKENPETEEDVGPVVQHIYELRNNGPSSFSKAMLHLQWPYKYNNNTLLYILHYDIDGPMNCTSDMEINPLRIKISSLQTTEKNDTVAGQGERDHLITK
Chain of αvβ3 receptor (P06756 891-1048 partner limits assumed): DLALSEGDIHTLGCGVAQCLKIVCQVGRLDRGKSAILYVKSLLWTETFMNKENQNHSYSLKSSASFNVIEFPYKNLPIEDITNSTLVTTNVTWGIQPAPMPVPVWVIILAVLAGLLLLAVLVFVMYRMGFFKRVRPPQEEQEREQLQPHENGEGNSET
Chain of αvβ3 receptor (P05106 27-788): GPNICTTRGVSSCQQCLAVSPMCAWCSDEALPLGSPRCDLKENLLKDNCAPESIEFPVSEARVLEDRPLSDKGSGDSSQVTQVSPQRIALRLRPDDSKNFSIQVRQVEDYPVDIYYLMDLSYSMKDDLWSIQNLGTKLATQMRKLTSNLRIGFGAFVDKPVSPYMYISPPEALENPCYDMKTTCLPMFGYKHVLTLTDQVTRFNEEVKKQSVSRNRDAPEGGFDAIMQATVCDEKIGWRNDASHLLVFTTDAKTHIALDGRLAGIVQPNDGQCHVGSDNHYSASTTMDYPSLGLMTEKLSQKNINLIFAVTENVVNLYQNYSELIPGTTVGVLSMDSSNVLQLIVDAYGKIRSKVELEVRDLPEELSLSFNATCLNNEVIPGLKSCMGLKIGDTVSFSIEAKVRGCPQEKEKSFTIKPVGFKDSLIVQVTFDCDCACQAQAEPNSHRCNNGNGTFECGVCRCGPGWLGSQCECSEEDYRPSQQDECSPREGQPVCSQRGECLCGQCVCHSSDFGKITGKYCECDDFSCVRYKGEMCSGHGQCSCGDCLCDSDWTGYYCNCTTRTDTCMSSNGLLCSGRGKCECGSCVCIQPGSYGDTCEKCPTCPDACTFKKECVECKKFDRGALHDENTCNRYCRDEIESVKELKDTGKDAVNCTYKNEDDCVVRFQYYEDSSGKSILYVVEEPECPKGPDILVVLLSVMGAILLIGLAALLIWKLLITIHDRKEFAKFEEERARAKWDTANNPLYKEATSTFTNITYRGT
(§2) The IC50 values reported in Tables 1 and 2 were calculated as the concentrations of compounds required for 50% inhibition of echistatin binding and were estimated by the Prism GraphPad program. The Ki of the competing ligands were calculated according to the Cheng-Prusoff equation (Cheng Y. C., et al., Biochem. Pharmacol., 1973, 22, 3099). Values are the mean±log standard error of triplicate determinations from two independent experiments.

For data set [2], the target named is αvβ5 receptors (Homo sapiens, UniProt P06756+P18084). The experiment in a line: Solid-phase binding assay, inhibition of [125I]Echistatin binding to αvβ5 receptors. As for the experimental part: as §1, §2
Chain of αvβ5 receptors (P06756 31-889 limits assumed): as the sequence (P06756 31-889 limits assumed) above
Chain of αvβ5 receptors (P06756 891-1048 partner limits assumed): as the sequence (P06756 891-1048 partner limits assumed) above
Chain of αvβ5 receptors (P18084 24-799): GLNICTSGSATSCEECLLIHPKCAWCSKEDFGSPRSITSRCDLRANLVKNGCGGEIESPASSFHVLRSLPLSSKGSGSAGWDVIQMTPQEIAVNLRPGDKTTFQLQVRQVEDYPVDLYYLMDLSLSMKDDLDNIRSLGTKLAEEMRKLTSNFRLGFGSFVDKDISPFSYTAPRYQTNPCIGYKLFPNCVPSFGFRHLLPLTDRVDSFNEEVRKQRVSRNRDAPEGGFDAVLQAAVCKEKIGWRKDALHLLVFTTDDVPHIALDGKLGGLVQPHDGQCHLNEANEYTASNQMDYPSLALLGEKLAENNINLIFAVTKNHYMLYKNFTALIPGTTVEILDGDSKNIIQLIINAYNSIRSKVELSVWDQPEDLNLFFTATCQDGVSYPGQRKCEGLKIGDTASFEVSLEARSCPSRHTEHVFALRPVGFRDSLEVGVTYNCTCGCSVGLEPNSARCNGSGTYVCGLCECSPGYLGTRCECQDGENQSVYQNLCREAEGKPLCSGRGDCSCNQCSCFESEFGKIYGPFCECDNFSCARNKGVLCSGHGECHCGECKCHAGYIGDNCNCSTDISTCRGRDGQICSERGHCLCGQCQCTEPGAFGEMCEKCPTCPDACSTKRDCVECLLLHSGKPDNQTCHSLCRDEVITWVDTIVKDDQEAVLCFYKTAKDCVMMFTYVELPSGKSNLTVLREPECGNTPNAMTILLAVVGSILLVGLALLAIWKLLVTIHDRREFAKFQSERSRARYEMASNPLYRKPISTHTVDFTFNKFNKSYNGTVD
Data set [3] relates to PC3 prostate carcinoma cells. The data set is classed as cell-based, human. Conditions: PC3, 1 h of treatment; read-out: IC50 ± SD, antiadhesive effect to vitronectin. As for the experimental part: A2780 human ovarian carcinoma and PC3 prostate carcinoma cells were grown in medium culture RPMI 1640 containing 10% fetal bovine serum and 50 μg/ml gentamycin sulfate. Cells were maintained in a 37° C. incubator with saturated humidity and an atmosphere of 95% air and 5% CO2. A2780 tumour cell line expresses high levels of αvβ5 integrin, and PC3 low levels of both integrins.
In 96-well tissue culture plates, 50 μl/well of a solution of vitronectin (5 μg/ml) were added for 2 h at room temperature. The solutions were removed upsetting the plates. 50 μl/well of a solution 1% BSA were added for 1 h at RT. The plates were washed by addition of 100 μl/well of medium culture RPMI 1640 without fetal calf serum (FCS). The washing was repeated twice. The molecules were added at different concentrations in the range between 0.039 μM and 20 μM. The solutions were prepared by dilution 1:2 in medium culture without FCS. Tumour cells in the flasks were washed in saline solution before to be detached by scraper, by the addition of 5 ml of medium culture without FCS and 1% BSA. Tumour cells were counted after resuspension and added at an appropriate cellular density (40000-50000 cells/well). The plates were incubated for 1 h at 37° C. in humidified incubator with 5% CO2. Then, the solutions were removed upsetting the plates and washed once with 200 μl/well of PBS with Ca^2+ e Mg^2+. Tumour cells were fixed with 100 μl of a solution 4% paraformaldehyde in 0.2 M Sorensen phosphate buffer pH 7.2-7.4 for 10 min at RT The plates were upset and 100 μl of 1% Toluidine Blu solution were added for 10 min at RT The plates were washed twice by immersion in bi-distilled water and then dried at 60° C. in thermostat incubator (Kottermann). 100 μl/well of 1% SDS were added. The plates were kept under stirring for 20 min at RT and were then evaluated by Victor 1420 multilabel counter (Wallac) at 600 nm.
The IC50 value as parameter to measure the inhibiting effect of the molecules on tumour cell adhesion to vitronectin was evaluated using “ALLFIT” computer program.

The subject of data set [4] is PC3 prostate carcinoma cells. The experiment in a line: Cytotoxicity, sulphorodamine B test (PC3). The data set is classed as cell-based, human. Conditions: PC3, 72 h of treatment; read-out: IC50 ± SD, cytotoxicity. As for the experimental part:
To evaluate the effect of the compound on survival cells, the sulphorodamine B test was used. To measure the effects of the compounds on cell growth, PC3 human prostate carcinoma and A2780 human ovarian carcinoma cells were used. A2780 and PC3 tumour cells were grown RPMI 1640 containing 10% fetal bovine serum (GIBCO).
Tumour cells were seeded in 96-well tissue culture plates at approximately 10% confluence and were allowed to attach and recover for at least 24 h. Varying concentrations of the drugs were then added to each well to calculate their IC50 value (the concentration which inhibits the 50% of cell survival). The plates were incubated at 37° C. for 72 h. At the end of the treatment, the plates were washed by removal of the supernatant and addition of PBS 3 times. 200 μl PBS and 50 μl of cold 80% trichloroacetic acid (TCA) were added. The plates were incubated on ice for at least 1 h. TCA was removed and the plates were washed 3 times by immersion in distilled-water and dried on paper and at 40° C. for 5 min. Then 200 μl of 0.4% sulphorodamine B in 1% acetic acid were added. The plates were incubated at RT for further 30 min. Sulphorodamine B was removed, the plates were washed by immersion in 1% acetic acid 3 times, then they were dried on paper and at 40° C. for 5 min. Then 200 μl Tris 10 mM were added, the plates were kept under stirring for 20 min. The cell survival was determined by means of optical density using a Multiskan spectrofluorimeter at 540 nm. The amount of cells killed was calculated as the percentage decrease in sulphorodamine B binding compared with control cultures.
The IC50 values were calculated with the “ALLFIT” program.

In data set [5] the test system is PC3 prostate ca. xenografted in CD1 nude mice. As to the kind of experiment: Antimetastatic activity on bone metastases induced by intracardiac injection of PC3 human prostate carcinoma. It counts as in vivo. As for the experimental part:
Male CD1 nude mice were anesthetized by 4 ml/kg of a mixture (xylazine:ketavet 100) given i.p. PC3 tumour cells were inoculated by intracardiac injection (1×10^5 cells/0.1 ml/mouse) into the heart left ventricle of mice using a 27-gauge needle. Mice were subdivided (11 mice/group) in the following experimental groups and after three days from tumour injection the molecules were administered as described:
Vehicle (DMSO 10%) i.v. q4d×4.
To evaluate the antitumour activity of the drug, high-resolution total body radiological analysis was carried out by using Faxitron system. Radiological analysis was carried out 30 days after tumour injection. Body weight recordings were carried out through the study and mortality was noted.

A word on the IC50: it is the concentration at which inhibition is half-maximal. The Ki is the dissociation constant of the complex between target and ligand, obtained from inhibition or displacement. A high value points to weaker binding. Take `CC[C@@]1(O)C(=O)OCc2c1cc1n(c2=O)Cc2c-1nc1ccccc1c2C=NOCCNC(=O)OCc1ccc(NC(=O)[C@H](CCCNC(N)=O)NC(=O)[C@H](C)NC(=O)COCCOCCOCC(=O)NCc2ccc(C[C@@H]3NC(=O)[C@@H](Cc4ccccc4)NC(=O)[C@H](CC(=O)O)NC(=O)CNC(=O)[C@H](CCCNC(=N)N)NC3=O)cc2)cc1` [ST3833]: the IC50 amounted to 78.4 ± 1.5 nM in data set [1], 87.8 ± 1.21 nM in data set [2], 2100 ± 200 nM in data set [3] and 4600 ± 800 nM in data set [4]. The values for the Ki in data set [1] and in data set [2] were 61 nM and 68.2 nM, respectively. For the same molecule, the “BWL % (maximum body weight loss)” value in data set [5] (56 mg/10 ml/kg i.v. q4dx4) was 0%. The “Lethal toxicity (dead/treated animals)” value in data set [5] (56 mg/10 ml/kg i.v. q4dx4) was 0/11. Moreover, the “MST (median survival time)” value in data set [5] (56 mg/10 ml/kg i.v. q4dx4) is reported as 58 days. Also, in data set [5] (56 mg/10 ml/kg i.v. q4dx4, 30 days after tumour injection), the “Incidence of osteolytic lesions (mice with metastases)” value is 5/11. Moreover, the tolerability entry in data set [5] (56 mg/kg iv (q4dx4), no reduction of body weight or lethal toxicity) is “well tolerated”. Further, in data set [5] (56 mg/kg iv q4dx4, vehicle-treated group 91%), the “incidence of osteolytic lesions, % of mice” value amounted to 45%.
